Assay results taken from US20240415914A1, “Water Dispersible Cannabinoid Compositions” (priority 2021, published 2024).

Experiment: Stability of cannabinoid and Vitamin E components of Beverage 1 (AB White) stored at 8° C. and 21-25° C., LCMSMS over 570 days
Format: physicochemical
Details: for Chemical stability over the entire period (result in words): AB White, 570 days; for Stability in AB White, 8° C. (content by LCMSMS): beverage stored at 8° C.; for Stability in AB White, 21-25° C. (content by LCMSMS): beverage stored at 21-25° C.
Procedure: The LCMSMS was calibrated for 0-1000 ng/ml cannabinoids with the same resin material used in the preparation of the concentrates. At each time period, 100 ml of beverage was diluted with 10 ml of methanol and injected into the LCMSMS for analysis.

CCCCCc1cc(O)c2c(c1)OC(C)(C)[C@@H]1CCC(C)=C[C@@H]21 [D9 THC, delta-9-tetrahydrocannabinol, reference compound]
Chemical stability over the entire period (result in words) (stored at 8° C.): high degree of stability | Chemical stability over the entire period (result in words) (stored at 21-25° C.): high degree of stability | Stability in AB White, 8° C. (content by LCMSMS) (day 0): 12.2 µg/mL | Stability in AB White, 8° C. (content by LCMSMS) (day 1): 12.20 µg/mL | Stability in AB White, 8° C. (content by LCMSMS) (day 2): 11.91 µg/mL | Stability in AB White, 8° C. (content by LCMSMS) (day 3): 12.25 µg/mL | Stability in AB White, 8° C. (content by LCMSMS) (day 5): 12.11 µg/mL | Stability in AB White, 8° C. (content by LCMSMS) (day 8): 11.83 µg/mL | Stability in AB White, 8° C. (content by LCMSMS) (day 9): 12.14 µg/mL | Stability in AB White, 8° C. (content by LCMSMS) (day 10): 12.07 µg/mL | Stability in AB White, 8° C. (content by LCMSMS) (day 11): 11.83 µg/mL | Stability in AB White, 8° C. (content by LCMSMS) (day 12): 11.88 µg/mL | Stability in AB White, 8° C. (content by LCMSMS) (day 15): 12.08 µg/mL | Stability in AB White, 8° C. (content by LCMSMS) (day 16): 12.18 µg/mL | Stability in AB White, 8° C. (content by LCMSMS) (day 17): 12.05 µg/mL | Stability in AB White, 8° C. (content by LCMSMS) (day 18): 12.00 µg/mL | Stability in AB White, 8° C. (content by LCMSMS) (day 19): 12.11 µg/mL | Stability in AB White, 8° C. (content by LCMSMS) (day 22): 11.97 µg/mL | Stability in AB White, 8° C. (content by LCMSMS) (day 23): 12.03 µg/mL | Stability in AB White, 8° C. (content by LCMSMS) (day 24): 11.87 µg/mL | Stability in AB White, 8° C. (content by LCMSMS) (day 25): 11.99 µg/mL | Stability in AB White, 8° C. (content by LCMSMS) (day 26): 11.97 µg/mL | Stability in AB White, 8° C. (content by LCMSMS) (day 29): 12.25 µg/mL | Stability in AB White, 8° C. (content by LCMSMS) (day 30): 12.05 µg/mL | Stability in AB White, 8° C. (content by LCMSMS) (day 60): 11.77 µg/mL | Stability in AB White, 8° C. (content by LCMSMS) (day 90): 11.92 µg/mL | Stability in AB White, 8° C. (content by LCMSMS) (day 120): 11.79 µg/mL | Stability in AB White, 8° C. (content by LCMSMS) (day 150): 12.07 µg/mL | Stability in AB White, 8° C. (content by LCMSMS) (day 180): 11.66 µg/mL | Stability in AB White, 8° C. (content by LCMSMS) (day 210): 11.79 µg/mL | Stability in AB White, 8° C. (content by LCMSMS) (day 240): 11.70 µg/mL | Stability in AB White, 8° C. (content by LCMSMS) (day 270): 11.98 µg/mL | Stability in AB White, 8° C. (content by LCMSMS) (day 300): 11.70 µg/mL | Stability in AB White, 8° C. (content by LCMSMS) (day 330): 11.68 µg/mL | Stability in AB White, 8° C. (content by LCMSMS) (day 360): 11.88 µg/mL | Stability in AB White, 8° C. (content by LCMSMS) (day 390): 11.85 µg/mL | Stability in AB White, 8° C. (content by LCMSMS) (day 420): 11.77 µg/mL | Stability in AB White, 8° C. (content by LCMSMS) (day 450): 11.80 µg/mL | Stability in AB White, 8° C. (content by LCMSMS) (day 480): 11.60 µg/mL | Stability in AB White, 8° C. (content by LCMSMS) (day 510): 11.33 µg/mL | Stability in AB White, 8° C. (content by LCMSMS) (day 540): 11.27 µg/mL | Stability in AB White, 8° C. (content by LCMSMS) (day 570): 11.21 µg/mL | Stability in AB White, 21-25° C. (content by LCMSMS) (day 0): 12.2 µg/mL | Stability in AB White, 21-25° C. (content by LCMSMS) (day 1): 11.8 µg/mL | Stability in AB White, 21-25° C. (content by LCMSMS) (day 2): 12.0 µg/mL | Stability in AB White, 21-25° C. (content by LCMSMS) (day 3): 11.9 µg/mL | Stability in AB White, 21-25° C. (content by LCMSMS) (day 5): 12.1 µg/mL | Stability in AB White, 21-25° C. (content by LCMSMS) (day 8): 12.3 µg/mL | Stability in AB White, 21-25° C. (content by LCMSMS) (day 9): 11.8 µg/mL | Stability in AB White, 21-25° C. (content by LCMSMS) (day 10): 11.7 µg/mL | Stability in AB White, 21-25° C. (content by LCMSMS) (day 11): 12.1 µg/mL | Stability in AB White, 21-25° C. (content by LCMSMS) (day 12): 11.9 µg/mL | Stability in AB White, 21-25° C. (content by LCMSMS) (day 15): 12.1 µg/mL | Stability in AB White, 21-25° C. (content by LCMSMS) (day 16): 12.1 µg/mL | Stability in AB White, 21-25° C. (content by LCMSMS) (day 17): 11.9 µg/mL | Stability in AB White, 21-25° C. (content by LCMSMS) (day 18): 11.8 µg/mL | Stability in AB White, 21-25° C. (content by LCMSMS) (day 19): 12.3 µg/mL | Stability in AB White, 21-25° C. (content by LCMSMS) (day 22): 11.9 µg/mL | Stability in AB White, 21-25° C. (content by LCMSMS) (day 23): 12.0 µg/mL | Stability in AB White, 21-25° C. (content by LCMSMS) (day 24): 12.1 µg/mL | Stability in AB White, 21-25° C. (content by LCMSMS) (day 25): 12.3 µg/mL | Stability in AB White, 21-25° C. (content by LCMSMS) (day 26): 12.1 µg/mL | Stability in AB White, 21-25° C. (content by LCMSMS) (day 29): 11.9 µg/mL | Stability in AB White, 21-25° C. (content by LCMSMS) (day 30): 11.9 µg/mL | Stability in AB White, 21-25° C. (content by LCMSMS) (day 60): 11.9 µg/mL | Stability in AB White, 21-25° C. (content by LCMSMS) (day 90): 12.0 µg/mL | Stability in AB White, 21-25° C. (content by LCMSMS) (day 120): 11.7 µg/mL | Stability in AB White, 21-25° C. (content by LCMSMS) (day 150): 11.7 µg/mL | Stability in AB White, 21-25° C. (content by LCMSMS) (day 180): 11.9 µg/mL | Stability in AB White, 21-25° C. (content by LCMSMS) (day 210): 11.4 µg/mL | Stability in AB White, 21-25° C. (content by LCMSMS) (day 240): 11.7 µg/mL | Stability in AB White, 21-25° C. (content by LCMSMS) (day 270): 11.9 µg/mL | Stability in AB White, 21-25° C. (content by LCMSMS) (day 300): 12.0 µg/mL | Stability in AB White, 21-25° C. (content by LCMSMS) (day 330): 11.4 µg/mL | Stability in AB White, 21-25° C. (content by LCMSMS) (day 360): 11.7 µg/mL | Stability in AB White, 21-25° C. (content by LCMSMS) (day 390): 11.4 µg/mL | Stability in AB White, 21-25° C. (content by LCMSMS) (day 420): 11.7 µg/mL | Stability in AB White, 21-25° C. (content by LCMSMS) (day 450): 11.7 µg/mL | Stability in AB White, 21-25° C. (content by LCMSMS) (day 480): 11.2 µg/mL | Stability in AB White, 21-25° C. (content by LCMSMS) (day 510): 11.2 µg/mL | Stability in AB White, 21-25° C. (content by LCMSMS) (day 540): 11.2 µg/mL | Stability in AB White, 21-25° C. (content by LCMSMS) (day 570): 11.2 µg/mL
